Values quoted from earlier work as cited in US12257323B2, “Modified wound dressings” (CONVATEC TECHNOLOGIES INC., priority 2016, dated 2025).

Tests used:
Settings in all cases: cited from earlier work
MMP-7 = target: T1, MMP-7 (Homo sapiens, UniProt P09237)
T1 sequence (P09237 95-267): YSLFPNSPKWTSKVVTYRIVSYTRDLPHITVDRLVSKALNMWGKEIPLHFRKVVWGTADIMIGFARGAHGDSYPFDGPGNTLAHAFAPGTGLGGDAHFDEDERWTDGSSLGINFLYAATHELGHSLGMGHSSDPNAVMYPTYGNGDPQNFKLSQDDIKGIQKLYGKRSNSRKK

MMP-1 = target: T2, MMP-1 (Homo sapiens, UniProt P03956)
T2 sequence (P03956 100-469): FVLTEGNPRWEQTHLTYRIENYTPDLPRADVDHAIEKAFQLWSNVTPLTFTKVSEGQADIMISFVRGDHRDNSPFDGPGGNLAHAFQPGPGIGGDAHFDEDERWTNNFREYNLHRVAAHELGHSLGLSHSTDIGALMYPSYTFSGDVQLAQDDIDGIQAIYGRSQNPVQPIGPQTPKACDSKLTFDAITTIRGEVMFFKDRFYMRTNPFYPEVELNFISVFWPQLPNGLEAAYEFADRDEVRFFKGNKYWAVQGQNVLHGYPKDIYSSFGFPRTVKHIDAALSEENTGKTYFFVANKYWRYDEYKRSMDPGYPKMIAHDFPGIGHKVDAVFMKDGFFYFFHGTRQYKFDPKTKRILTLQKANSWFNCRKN

MMP-9 = MMP-9 (Homo sapiens, UniProt P14780)
Sequence of MMP-9 (P14780 94-707): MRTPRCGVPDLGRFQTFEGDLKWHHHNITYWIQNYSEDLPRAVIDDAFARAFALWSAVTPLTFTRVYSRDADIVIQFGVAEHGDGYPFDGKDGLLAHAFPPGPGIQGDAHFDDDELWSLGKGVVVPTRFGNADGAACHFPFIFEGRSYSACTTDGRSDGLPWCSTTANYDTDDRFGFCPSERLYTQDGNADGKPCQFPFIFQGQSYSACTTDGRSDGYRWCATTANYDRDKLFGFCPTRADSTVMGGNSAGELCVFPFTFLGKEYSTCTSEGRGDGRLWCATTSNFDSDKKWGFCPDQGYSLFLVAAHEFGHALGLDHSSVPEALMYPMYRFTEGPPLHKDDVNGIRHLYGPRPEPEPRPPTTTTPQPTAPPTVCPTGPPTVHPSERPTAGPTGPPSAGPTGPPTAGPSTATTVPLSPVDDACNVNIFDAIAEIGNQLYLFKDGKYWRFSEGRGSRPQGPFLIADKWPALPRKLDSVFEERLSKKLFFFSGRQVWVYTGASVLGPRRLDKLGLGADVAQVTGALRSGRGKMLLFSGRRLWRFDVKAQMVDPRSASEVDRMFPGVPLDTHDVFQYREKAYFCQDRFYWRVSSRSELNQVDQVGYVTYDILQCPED

MMP-2 = target: T3, MMP-2 (Homo sapiens, UniProt P08253)
T3 sequence (P08253 110-660): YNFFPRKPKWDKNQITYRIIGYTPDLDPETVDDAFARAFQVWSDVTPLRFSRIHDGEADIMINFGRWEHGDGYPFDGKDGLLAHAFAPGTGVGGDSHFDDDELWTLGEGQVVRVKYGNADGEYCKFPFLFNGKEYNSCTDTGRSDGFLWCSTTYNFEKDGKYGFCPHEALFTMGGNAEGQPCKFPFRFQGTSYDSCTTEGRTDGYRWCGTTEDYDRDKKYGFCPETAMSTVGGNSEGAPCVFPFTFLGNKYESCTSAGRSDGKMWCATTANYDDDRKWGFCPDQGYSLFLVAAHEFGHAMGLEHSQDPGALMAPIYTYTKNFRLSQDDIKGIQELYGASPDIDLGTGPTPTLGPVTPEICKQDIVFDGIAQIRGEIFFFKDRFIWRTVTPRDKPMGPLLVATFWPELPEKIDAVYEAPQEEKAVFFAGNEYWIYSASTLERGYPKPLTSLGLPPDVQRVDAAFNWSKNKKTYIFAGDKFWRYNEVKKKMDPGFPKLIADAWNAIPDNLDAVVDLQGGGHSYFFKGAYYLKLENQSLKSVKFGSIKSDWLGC

MMP-3 = MMP-3 (Homo sapiens, UniProt P08254)
Sequence of MMP-3 (P08254 100-477): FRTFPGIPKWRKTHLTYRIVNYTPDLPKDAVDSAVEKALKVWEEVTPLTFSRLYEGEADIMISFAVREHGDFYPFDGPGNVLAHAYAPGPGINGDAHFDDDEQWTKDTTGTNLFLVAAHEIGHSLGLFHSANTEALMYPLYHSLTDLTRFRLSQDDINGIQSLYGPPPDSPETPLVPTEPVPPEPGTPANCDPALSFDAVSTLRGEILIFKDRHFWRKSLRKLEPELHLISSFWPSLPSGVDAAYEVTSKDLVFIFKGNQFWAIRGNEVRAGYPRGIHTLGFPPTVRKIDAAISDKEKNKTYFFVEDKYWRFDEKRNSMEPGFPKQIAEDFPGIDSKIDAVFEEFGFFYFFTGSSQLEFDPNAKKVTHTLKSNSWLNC

MMP-8 = MMP-8 (Homo sapiens, UniProt P22894)
Sequence of MMP-8 (P22894 101-467): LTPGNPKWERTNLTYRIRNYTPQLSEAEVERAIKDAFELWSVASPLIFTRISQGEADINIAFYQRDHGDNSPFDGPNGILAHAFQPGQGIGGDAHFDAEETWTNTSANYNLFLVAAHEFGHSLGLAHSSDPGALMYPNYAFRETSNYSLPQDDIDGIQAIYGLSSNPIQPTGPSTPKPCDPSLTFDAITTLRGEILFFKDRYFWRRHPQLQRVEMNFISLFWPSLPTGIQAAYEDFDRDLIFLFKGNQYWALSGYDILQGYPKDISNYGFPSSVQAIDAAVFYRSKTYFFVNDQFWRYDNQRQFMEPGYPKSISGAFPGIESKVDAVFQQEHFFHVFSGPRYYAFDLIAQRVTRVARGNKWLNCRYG

GIy-Pro-Gln-Gly4Ile-Arg-Gly-Gln
Relative rate MMP-7 (MMP-7): 270
Relative rate MMP-1 (MMP-1): 180
Relative rate MMP-9 (MMP-9): 200
Relative rate MMP-2 (MMP-2): 180
Relative rate MMP-3 (MMP-3): 250
Relative rate MMP-8 (MMP-8): 170

Gly-Ala-Gln-Gly#Ile-Ala-Gly-Gln (GAQGIAGQ; printed: Gly-Ala-Gln-Gly; printed: Ile-Ala-Gly-Gln)
Relative rate MMP-1 (MMP-1): 50
Relative rate MMP-9 (MMP-9): 9.4
Relative rate MMP-2 (MMP-2): 22
Relative rate MMP-3 (MMP-3): 62
Relative rate MMP-8 (MMP-8): 23

Gly-Asn-Gln-Gly#Ile-Ala-Gly-Gln (GNQGIAGQ; printed: Gly-Asn-Gln-Gly; printed: Ile-Ala-Gly-Gln)
Relative rate MMP-7 (MMP-7): 25
Relative rate MMP-1 (MMP-1): 17
Relative rate MMP-9 (MMP-9): <5.0
Relative rate MMP-2 (MMP-2): 60
Relative rate MMP-3 (MMP-3): 68
Relative rate MMP-8 (MMP-8): 45

Gly-Pro-Asp-Gly#Ile-Ala-Gly-Gln (GPDGIAGQ; printed: Gly-Pro-Asp-Gly; printed: Ile-Ala-Gly-Gln)
Relative rate MMP-7 (MMP-7): 7.0
Relative rate MMP-1 (MMP-1): 30
Relative rate MMP-9 (MMP-9): 10
Relative rate MMP-2 (MMP-2): 11
Relative rate MMP-3 (MMP-3): 89
Relative rate MMP-8 (MMP-8): 44

Gly-Pro-Gln-Ala#Ile-Ala-Gly-Gln
Relative rate MMP-7 (MMP-7): 530
Relative rate MMP-1 (MMP-1): 600
Relative rate MMP-9 (MMP-9): 110
Relative rate MMP-2 (MMP-2): 96
Relative rate MMP-3 (MMP-3): 300
Relative rate MMP-8 (MMP-8): 320

Gly-Pro-Gln-Gln#Ile-Ala-Gly-Gln
Relative rate MMP-7 (MMP-7): 180
Relative rate MMP-1 (MMP-1): 140
Relative rate MMP-9 (MMP-9): 13
Relative rate MMP-2 (MMP-2): 25
Relative rate MMP-3 (MMP-3): 140
Relative rate MMP-8 (MMP-8): 150

Gly-Pro-Gln-Glu#Ile-Ala-Gly-Gln
Relative rate MMP-7 (MMP-7): 170
Relative rate MMP-1 (MMP-1): 28
Relative rate MMP-9 (MMP-9): 29
Relative rate MMP-2 (MMP-2): 15
Relative rate MMP-3 (MMP-3): 190
Relative rate MMP-8 (MMP-8): 330

Gly-Pro-Gln-Glv#Met-Ala-Gly-Gln
Relative rate MMP-7 (MMP-7): 89
Relative rate MMP-1 (MMP-1): 110
Relative rate MMP-9 (MMP-9): 170
Relative rate MMP-2 (MMP-2): 230
Relative rate MMP-3 (MMP-3): 60
Relative rate MMP-8 (MMP-8): 84

Gly-Pro-Gln-Gly#Arg-Ala-Gly-Gln
Relative rate MMP-7 (MMP-7): <5.0
Relative rate MMP-1 (MMP-1): <0.5
Relative rate MMP-9 (MMP-9): <5.0
Relative rate MMP-2 (MMP-2): <5.0
Relative rate MMP-3 (MMP-3): <4.9
Relative rate MMP-8 (MMP-8): <0.5

Gly-Pro-Gln-Gly#Gln-Ala-Gly-Gln
Relative rate MMP-7 (MMP-7): <5.0
Relative rate MMP-1 (MMP-1): 28
Relative rate MMP-9 (MMP-9): 20
Relative rate MMP-2 (MMP-2): 34
Relative rate MMP-3 (MMP-3): 38
Relative rate MMP-8 (MMP-8): 10

Gly-Pro-Gln-Gly#Glu-Ala-Gly-Gln
Relative rate MMP-7 (MMP-7): 8.0
Relative rate MMP-1 (MMP-1): <0.5
Relative rate MMP-9 (MMP-9): <5.0
Relative rate MMP-2 (MMP-2): <5.0
Relative rate MMP-3 (MMP-3): <0.5
Relative rate MMP-8 (MMP-8): <0.5

Gly-Pro-Gln-Gly#Ile-Ala-Ala-Gln
Relative rate MMP-7 (MMP-7): 300
Relative rate MMP-1 (MMP-1): 220
Relative rate MMP-9 (MMP-9): 140
Relative rate MMP-2 (MMP-2): 180
Relative rate MMP-3 (MMP-3): 280
Relative rate MMP-8 (MMP-8): 120

Gly-Pro-Gln-Gly#Ile-Ala-Arg-Gln
Relative rate MMP-7 (MMP-7): 220
Relative rate MMP-1 (MMP-1): 55
Relative rate MMP-9 (MMP-9): 45
Relative rate MMP-2 (MMP-2): 35
Relative rate MMP-3 (MMP-3): 490
Relative rate MMP-8 (MMP-8): 34

Gly-Pro-Gln-Gly#Ile-Ala-Gly His
Relative rate MMP-7 (MMP-7): 87
Relative rate MMP-1 (MMP-1): 91
Relative rate MMP-9 (MMP-9): 120
Relative rate MMP-2 (MMP-2): 150
Relative rate MMP-3 (MMP-3): 110
Relative rate MMP-8 (MMP-8): 145

Gly-Pro-Gln-Gly#Ile-Ala-Gly-Ala
Relative rate MMP-7 (MMP-7): 91
Relative rate MMP-1 (MMP-1): 86
Relative rate MMP-9 (MMP-9): 110
Relative rate MMP-2 (MMP-2): 85
Relative rate MMP-3 (MMP-3): 130
Relative rate MMP-8 (MMP-8): 110

Gly-Pro-Gln-Gly#Ile-Ala-Gly-Gln
Relative rate MMP-7 (MMP-7): 100
Relative rate MMP-1 (MMP-1): 100
Relative rate MMP-9 (MMP-9): 100
Relative rate MMP-2 (MMP-2): 100
Relative rate MMP-3 (MMP-3): 100
Relative rate MMP-8 (MMP-8): 100

Gly-Pro-Gln-Gly#Ile-Ala-Gly-Thr
Relative rate MMP-7 (MMP-7): 100
Relative rate MMP-1 (MMP-1): 160
Relative rate MMP-9 (MMP-9): 160
Relative rate MMP-2 (MMP-2): 59
Relative rate MMP-3 (MMP-3): 72
Relative rate MMP-8 (MMP-8): 145

Gly-Pro-Gln-Gly#Ile-Ala-Met-Gln
Relative rate MMP-7 (MMP-7): 450
Relative rate MMP-1 (MMP-1): 130
Relative rate MMP-9 (MMP-9): 35
Relative rate MMP-2 (MMP-2): 40
Relative rate MMP-3 (MMP-3): 810
Relative rate MMP-8 (MMP-8): 34

Gly-Pro-Gln-Gly#Ile-Ala-Ser-Gln
Relative rate MMP-7 (MMP-7): 150
Relative rate MMP-1 (MMP-1): 91
Relative rate MMP-9 (MMP-9): 130
Relative rate MMP-2 (MMP-2): 320
Relative rate MMP-3 (MMP-3): 230
Relative rate MMP-8 (MMP-8): 58

Gly-Pro-Gln-Gly#Ile-Ala-Val-Gln
Relative rate MMP-7 (MMP-7): 170
Relative rate MMP-1 (MMP-1): 100
Relative rate MMP-9 (MMP-9): 49
Relative rate MMP-2 (MMP-2): 26
Relative rate MMP-3 (MMP-3): 170
Relative rate MMP-8 (MMP-8): 57

Gly-Pro-Gln-Gly#Ile-Glu-Gly-Gln
Relative rate MMP-7 (MMP-7): 86
Relative rate MMP-1 (MMP-1): 35
Relative rate MMP-9 (MMP-9): 130
Relative rate MMP-2 (MMP-2): 85
Relative rate MMP-3 (MMP-3): 58
Relative rate MMP-8 (MMP-8): 59

Gly-Pro-Gln-Gly#Ile-Hyp-Gly-Gln
Relative rate MMP-7 (MMP-7): 8.0
Relative rate MMP-1 (MMP-1): 7.3
Relative rate MMP-9 (MMP-9): 11
Relative rate MMP-2 (MMP-2): 32
Relative rate MMP-3 (MMP-3): 42
Relative rate MMP-8 (MMP-8): 1.5

Gly-Pro-Gln-Gly#Ile-Leu-Gly-Gln
Relative rate MMP-7 (MMP-7): 250
Relative rate MMP-1 (MMP-1): 430
Relative rate MMP-9 (MMP-9): 240
Relative rate MMP-2 (MMP-2): 400
Relative rate MMP-3 (MMP-3): 280
Relative rate MMP-8 (MMP-8): 400

Gly-Pro-Gln-His#Ile-Ala-Gly-Gln
Relative rate MMP-1 (MMP-1): 190
Relative rate MMP-9 (MMP-9): 44
Relative rate MMP-2 (MMP-2): 65
Relative rate MMP-3 (MMP-3): 87
Relative rate MMP-8 (MMP-8): 50
